Assays:
F70C (NDM-1 mutant) = biological target: T1, F70C (NDM-1 mutant) (Klebsiella pneumoniae, UniProt C7C422, F70C); experiment: Specific activity against antibiotics by ultraviolet-visible spectroscopy (antibiotic hydrolysis); type: biochemical; details: enzyme 0.001 mg/ml, 100 μM antibiotic, 50 μM ZnCl2, 20 mM Tris-HCl buffer, pH 7.0
T1 construct: made in house; host or cells: E. coli BL21 (DE3), pET-3k vector
Description: (§1) Specific activity (U/mg) of wild-type NDM-1, F70C and F70Cf against different antibiotics were measured by ultraviolet-visible spectroscopy. Enzymes (final concentration: 0.001 mg/ml) were incubated with 100 μM of different antibiotics: cefotaxime, ceftazidime, penicillin G, ampicillin and meropenem, in 500 μL buffer (50 μM ZnCl2, 20 mM Tris-HCl buffer, pH 7.0). Antibiotic hydrolysis was monitored at 264 nm (cefotaxime), 260 nm (ceftazidime), 240 nm (penicillin G), 235 nm (ampicillin) and 297 nm (meropenem). The molar extinction coefficients were used as follows: cefotaxime=−7250 M^−1 cm^−1, ceftazidime=−8660 M^−1 cm^−1, penicillin G=−560 M^−1 cm^−1, ampicillin=900 M^−1 cm^−1 and meropenem −10940 M^−1 cm^−1.

[1] = biological target: T2, F70Cf (fluorescein-labelled NDM-1 mutant) (Klebsiella pneumoniae, UniProt C7C422, F70C); experiment: as above; type: biochemical; details: enzyme 0.001 mg/ml, 100 μM antibiotic, 50 μM ZnCl2, 20 mM Tris-HCl buffer, pH 7.0
T2 construct: made in house; host or cells: E. coli BL21 (DE3), pET-3k vector; labelled with F5M after purification
Description: as §1

Wild-type NDM-1 = biological target: T3, Wild-type NDM-1 (Klebsiella pneumoniae, UniProt C7C422); experiment: as above; type: biochemical; details: enzyme 0.001 mg/ml, 100 μM antibiotic, 50 μM ZnCl2, 20 mM Tris-HCl buffer, pH 7.0
T3 construct: made in house; host or cells: E. coli BL21 (DE3), pET-3k vector
Description: as §1

F70Cf [2] = biological target: T4, F70Cf (Klebsiella pneumoniae, UniProt C7C422, F70C); experiment: Time-course fluorescence measurements of F70Cf on a spectrofluorometer; type: binding; details: for Fluorescence signal of F70Cf with β-lactam antibiotic as a function of time: spectrofluorometer, mole ratios 1:150 and 1:1500, FIGS. 5A-5B; for Fluorescence signal of F70Cf with inhibitor: F70Cf 0.13 μM, inhibitor 0, 2, 20 and 200 μM, excitation 494 nm, emission 518 nm, L-arginine 200 μM (1:1500) as control, FIGS. 7A-7E; for Initial phase of fluorescence increase (speed of binding to F70Cf): spectrophotometer, FIGS. 7A-7D
T4 construct: made in house; host or cells: E. coli BL21 (DE3), pET-3k vector; labelled with F5M after purification
Source text: To investigate fluorescence response of the proposed NDM-1 mutant to two existing β-lactam antibiotics, fluorescein-labelled NDM-1 mutant, F70Cf, was mixed with cefotaxime and cephalothin in two concentrations (in mole ratios of 1:150 and 1:1500) and compared the fluorescence intensity level of these two samples with a blank (i.e., no cefotaxime nor cephalothin, or mole ratio=1:0) under a spectrofluorometer. […] It has been shown in other previous studies (Chan et al., 2008; Tsang et al., 2011) that binding of β-lactam antibiotics to the enzyme's active site induces the […] to depart from the active site, so that the fluorescein label (F5M) becomes well exposed to external aqueous environment and/or stays away from amino acid quenchers in the active site. When the […] is hydrolyzed to the acid product, the fluorescein label (F5M) returns to the active site, thus restoring its weak fluorescence signal.
Time-course fluorescence measurements were recorded at 518 nm by exciting the F70Cf (final concentration: 0.13 μM) at 494 nm with different concentrations of the inhibitors (0, 2, 20 and 200 μM, respectively) in labelling buffer (50 μM ZnCl2, 20 mM Tris-HCl buffer, pH 7.0) in a quartz cuvette. Triplicate measurements were performed for each inhibitor. L-arginine in 200 μM was also used as a control.

F70Cf [3] = biological target: T4, F70Cf; experiment: Fluorescence microplate reader measurements of F70Cf; type: binding; details: for Fluorescence signal of F70Cf as a function of time, microplate reader: mole ratio of F70Cf to test substance 1:1500, FIGS. 6A-6B, 8E; for Initial increase in fluorescence signal, microplate reader: mole ratio 1:1500, FIGS. 8A-8D
Description: To investigate compatibility of F70Cf with a high-throughput screening platform, a F70Cf was initially added to a fluorescence microplate reader followed by injection of 1:1500 cefotaxime and cephalothin, respectively.
For high-throughput inhibitor screening experiments, the fluorescence signal changes were recorded by adding 10 μL of each inhibitor (final concentration: 200 μM) automatically into 250 μL of F70Cf (final concentration: 0.13 μM) in a 96-well plate containing 50 μM ZnCl2, 20 mM, pH7.0, Tris-HCl buffer, using Thermo Scientific Varioskan LUX Multimode Microplate Reader (Thermo Fisher Scientific) (n=3). The excitation and emission wavelengths were 494 and 520 nm, respectively. The injection of each inhibitor started at 0.5 min.

F70Cf [4] = biological target: T4, F70Cf; experiment: Native ESI-MS binding study of F70Cf with inhibitors; details: 20 mM ammonium acetate with 50 μM ZnCl2, FIGS. 9A-9F
Description: To further verify that F70Cf can bind to these non-β-lactam inhibitors non-covalently, native ESI-MS measurements were performed. […] Prior to ESI-MS analysis, protein was buffer-exchanged into 20 mM ammonium acetate with 50 μM ZnCl2 buffer with ultra-filtration devices. Equal volumes of F70Cf and inhibitors were mixed in a molar ratio of 1:20 for 10 minutes, and the mixture was directly loaded into metal-coated glass capillaries, which were subsequently mounted onto the nano-ESI source for MS analysis […].

NDM-1 = NDM-1 (Klebsiella pneumoniae, UniProt C7C422); details: previous studies (Brem et al., 2016; Klingler et al., 2015; Ma et al., 2019); cited from earlier work

T3 sequence (C7C422 29-270 limits assumed): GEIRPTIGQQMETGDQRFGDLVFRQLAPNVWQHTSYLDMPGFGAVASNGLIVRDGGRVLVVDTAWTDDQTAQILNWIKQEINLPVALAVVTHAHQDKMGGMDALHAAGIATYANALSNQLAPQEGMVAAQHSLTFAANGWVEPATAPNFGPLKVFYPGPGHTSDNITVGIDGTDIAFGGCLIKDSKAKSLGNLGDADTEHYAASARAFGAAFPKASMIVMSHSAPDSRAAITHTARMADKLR
T2 sequence (C7C422 29-270 F70C): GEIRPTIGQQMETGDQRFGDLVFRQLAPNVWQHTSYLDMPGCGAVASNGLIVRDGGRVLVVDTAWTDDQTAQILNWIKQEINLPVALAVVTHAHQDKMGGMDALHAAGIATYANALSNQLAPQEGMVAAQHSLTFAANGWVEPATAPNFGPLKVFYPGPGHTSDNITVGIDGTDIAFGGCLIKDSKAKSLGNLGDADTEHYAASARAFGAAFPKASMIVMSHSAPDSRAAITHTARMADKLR
T1 sequence (C7C422 29-270 F70C): as above
T4 sequence (C7C422 29-270 F70C): as above

Row | Compound | Specific activity, F70C (F70C (NDM-1 mutant)) | Specific activity, F70Cf [1] | Specific activity, Wild-type NDM-1 (Wild-type NDM-1) | Fluorescence signal of F70Cf with β-lactam antibiotic as a function of time (F70Cf [2]) | Fluorescence signal of F70Cf as a function of time, microplate reader (F70Cf [3]) | Fluorescence signal of F70Cf with inhibitor (F70Cf [2]) | Initial phase of fluorescence increase (speed of binding to F70Cf) (F70Cf [2]) | Initial increase in fluorescence signal, microplate reader (F70Cf [3]) | Formation of non-covalent complex with F70Cf (F70Cf [4]) | IC50 (NDM-1)
1 | CO/N=C(\C(=O)N[C@@H]1C(=O)N2C(C(=O)O)=C(COC(C)=O)CS[C@H]12)c1csc(N)n1 [Cefotaxime, cefotaxime] | 8195 ± 1960 U/mg | 1529 ± 121 U/mg | 8166 ± 937 U/mg | fluorescence signals increased and then decreased gradually as a function of time | stronger fluorescence signals and then declining fluorescence signals as a function of time | – | – | – | – | –
2 | CC1(C)S[C@@H]2[C@H](NC(=O)Cc3ccccc3)C(=O)N2[C@H]1C(=O)O [Penicillin G, penicillin G] | 60854 ± 1436 U/mg | 10720 ± 330 U/mg | 54764 ± 3013 U/mg | – | – | – | – | – | – | –
3 | CC(C)(O/N=C(\C(=O)N[C@@H]1C(=O)N2C(C(=O)[O-])=C(C[n+]3ccccc3)CS[C@H]12)c1csc(N)n1)C(=O)O [Ceftazidime, ceftazidime] | 3835 ± 216 U/mg | 308 ± 33 U/mg | 3446 ± 150 U/mg | – | – | – | – | – | – | –
4 | CC1(C)S[C@@H]2[C@H](NC(=O)[C@H](N)c3ccccc3)C(=O)N2[C@H]1C(=O)O [Ampicillin, ampicillin] | 13880 ± 1406 U/mg | 779 ± 114 U/mg | 16349 ± 880 U/mg | – | – | – | – | – | – | –
5 | C[C@@H](O)[C@H]1C(=O)N2C(C(=O)O)=C(S[C@@H]3CN[C@H](C(=O)N(C)C)C3)[C@H](C)[C@H]12 [Meropenem, meropenem] | 5863 ± 291 U/mg | 506 ± 30 U/mg | 6834 ± 1582 U/mg | – | – | – | – | – | – | –
6 | peptide with an amino acid sequence of GSKKPVPIIYCNRRTGKCQRM (SEQ ID NO: 9), from GL Biochem [thanatin] | – | – | – | – | – | increased with an increasing dose of the inhibitors | bind much faster to F70Cf as compared L-captopril | much faster than that of L-captopril | can form non-covalent complexes with F70Cf in a significant population | 3210 nM
7 | N=C(N)NCCC[C@H](N)C(=O)O [L-arginine] | – | – | – | – | no fluorescence signals | no fluorescence signal | – | – | virtually cannot form a F70Cf-L-arginine complex in a significant population | –
8 | O=C(O)CNC(=O)C(CS)Cc1ccccc1 (racemic) [DL-thiorphan] | – | – | – | – | – | increased with an increasing dose of the inhibitors | bind much faster to F70Cf as compared L-captopril | much faster than that of L-captopril | can form non-covalent complexes with F70Cf in a significant population | 1800 nM
9 | CC(=O)OCC1=C(C(=O)O)N2C(=O)[C@@H](NC(=O)Cc3cccs3)[C@H]2SC1 [cephalothin] | – | – | – | fluorescence signals increased and then decreased gradually as a function of time | stronger fluorescence signals and then declining fluorescence signals as a function of time | – | – | – | – | –
